# Laboratory results taken from patent US4431809A, “Antibiotic A-33853 derivatives” (Eli Lilly and Company, priority 1982, dated 1984).
# Like-named read-outs stand apart in the source and are kept apart here.
# Legend:
# [1] = tested on: Staphylococcus aureus 3055; experiment: Disc-plate screening; type: cell-based; details: benzylpenicillin-susceptible, read-out: Zone Diameter
# Protocol: (§1) Agar plates, inoculated with the test organism, were used; 6 mm. discs (0.02 ml. capacity) were saturated from log 2 dilutions of the antibiotic solution. Disc content was 1/5 or 1/50 of the concentration of the solution used, i.e., disc content of […] 30 μg. was obtained from a solution of 1500 μg./ml. concentration.
# [2] = tested on: Staphylococcus aureus 3130; experiment: Disc-plate screening; type: cell-based; details: benzylpenicillin resistant, methicillin resistant, read-out: Zone Diameter
# Protocol: as §1
# [3] = tested on: Staphylococcus aureus 3074; experiment: Disc-plate screening; type: cell-based; details: benzylpenicillin resistant, read-out: Zone Diameter
# Protocol: as §1
# [4] = tested on: Streptococcus pyogenes C203; experiment: Disc-plate screening; type: cell-based; details: read-out: Zone Diameter
# Protocol: as §1
# [5] = tested on: Staphylococcus aureus 3055; experiment: Agar-dilution screening (ICS); type: cell-based; details: benzylpenicillin-susceptible
# [6] = tested on: Maryland B influenza virus; experiment: In vitro antiviral activity, Maryland B influenza virus; type: cell-based; details: in words
# [7] = Acute toxicity in the mouse, IP; details: in vivo
# Mycoplasma gallisepticum = experiment: In vitro MIC, bacteria pathogenic to animals; type: cell-based; details: Mycoplasmoides gallisepticum
# Protocol: (§2) Antibiotic A-33853 was also tested in vitro to determine the MIC in μg./ml. against a number of bacterial organisms pathogenic to animals.
# Staphylococcus sp. = experiment: In vitro MIC, bacteria pathogenic to animals; type: cell-based
# Protocol: as §2
# Streptococcus sp. = experiment: In vitro MIC, bacteria pathogenic to animals; type: cell-based
# Protocol: as §2
# Aeromonas liquefaciens = experiment: In vitro MIC, bacteria pathogenic to animals; type: cell-based; details: Aeromonas hydrophila
# Protocol: as §2
# Mycoplasma hyorhinis = experiment: In vitro MIC, bacteria pathogenic to animals; type: cell-based
# Protocol: as §2
# [8] = tested on: Pasteurella multocida (turkey); experiment: In vitro MIC, bacteria pathogenic to animals; type: cell-based
# Protocol: as §2
# Pseudomonas (animal) = experiment: In vitro MIC, bacteria pathogenic to animals; type: cell-based
# Protocol: as §2
# Salmonella dublin = experiment: In vitro MIC, bacteria pathogenic to animals; type: cell-based; details: Salmonella enterica
# Protocol: as §2
# [9] = tested on: Pasteurella multocida (bovine); experiment: In vitro MIC, bacteria pathogenic to animals; type: cell-based
# Protocol: as §2
# [10] = tested on: Bordetella bronchiseptica; experiment: In vitro MIC, bacteria pathogenic to animals; type: cell-based
# Protocol: as §2
# Mycoplasma synoviae = experiment: In vitro MIC, bacteria pathogenic to animals; type: cell-based; details: Mycoplasmopsis synoviae
# Protocol: as §2
# Mycoplasma hyopneumoniae = experiment: In vitro MIC, bacteria pathogenic to animals; type: cell-based; details: Mesomycoplasma hyopneumoniae
# Protocol: as §2
# Pseudomonas (fish) = experiment: In vitro MIC, bacteria pathogenic to animals; type: cell-based
# Protocol: as §2
# Escherichia coli = experiment: In vitro MIC, bacteria pathogenic to animals; type: cell-based
# Protocol: as §2
# Eimeria tenella = experiment: In vitro activity against Eimeria tenella; type: cell-based; details: in words
# mosquito = experiment: Mosquito larvicide activity; type: in vivo; details: in words
# Salmonella typhosa SA12 = experiment: Agar-dilution screening (ICS); details: Salmonella enterica
# physchem = details: 66% dimethylformamide in water
# Solubility = type: physicochemical
# [11] = tested on: Staphylococcus aureus 3074; experiment: Agar-dilution screening (ICS); type: cell-based; details: benzylpenicillin resistant
# Trichomonas vaginalis = experiment: Tube-dilution test, Trichomonas vaginalis; type: cell-based; details: for MIC: Trichomonas vaginalis, tube-dilution test, T. vaginalis, read-out: minimal inhibitory concentration (MIC); for in vitro activity against Trichomonas vaginalis: in words
# [12] = tested on: Staphylococcus epidermidis 222; type: cell-based; details: agar-dilution, 24 hours
# [13] = tested on: Streptococcus sp. Group D X66; type: cell-based
# [14] = tested on: Staphylococcus epidermidis EPI1; type: cell-based; details: EPI1, 24 h
# [15] = tested on: Streptococcus pneumoniae Park I; type: cell-based; details: 24 h
# [16] = tested on: Streptococcus pyogenes C203; type: cell-based; details: agar-dilution, 24 hours
# [17] = tested on: Haemophilus influenzae 76; type: cell-based; details: agar-dilution, 24 hours
# [18] = tested on: Staphylococcus aureus V41; type: cell-based
# [19] = tested on: Streptococcus sp. Group D 9960; type: cell-based; details: agar-dilution, 24 hours
# [20] = tested on: Staphylococcus aureus X400; type: cell-based; details: agar-dilution, 24 hours
# [21] = tested on: Haemophilus influenzae C.L.; type: cell-based; details: agar-dilution, 24 hours
# [22] = 66 percent aqueous dimethylformamide
# [23] = alkaline solutions and most organic solvents
smiles,measurement,setting,value
"O=C(Nc1c(O)cccc1-c1nc2c(C(=O)O)cccc2o1)c1ncccc1O [A-33853, 2-[3-hydroxy-2-[[(3-hydroxy-2-pyridinyl)carbonyl]amino]phenyl]-4-benzoxazolecarboxylic acid]",zone of inhibition at 30 µg/disc,[1]; 30 μg./disc,10 mm
same,zone of inhibition at 300 µg/disc,[1]; 300 μg./disc,11 mm
same,zone of inhibition at 30 µg/disc,[2]; 30 μg./disc,13.2 mm
same,zone of inhibition at 300 µg/disc,[2]; 300 μg./disc,13.4 mm
same,zone of inhibition at 30 µg/disc,[3]; 30 μg./disc,10.4 mm
same,zone of inhibition at 300 µg/disc,[3]; 300 μg./disc,11.6 mm
same,zone of inhibition at 30 µg/disc,[4]; 30 μg./disc,0 mm
same,zone of inhibition at 300 µg/disc,[4]; 300 μg./disc,8 mm
same,MIC,[5],2 µg/mL
same,growth inhibition / activity in vitro,[6],inhibits the growth in vitro
same,LD50,[7],> 300 mg/kg
same,MIC,Mycoplasma gallisepticum,1.56 µg/mL
same,MIC,Staphylococcus sp.,3.12 µg/mL
same,MIC,Streptococcus sp.,6.25 µg/mL
same,MIC,Aeromonas liquefaciens,3.12 µg/mL
same,MIC,Mycoplasma hyorhinis,1.56 µg/mL
same,MIC,[8],6.25 µg/mL
same,MIC,Pseudomonas (animal),> 50 µg/mL
same,MIC,Salmonella dublin,> 50 µg/mL
same,MIC,[9],1.56 µg/mL
same,MIC,[10],> 50 µg/mL
same,MIC,Mycoplasma synoviae,1.56 µg/mL
same,MIC,Mycoplasma hyopneumoniae,< 0.78 µg/mL
same,MIC,Pseudomonas (fish),50 µg/mL
same,MIC,Escherichia coli,> 50 µg/mL
same,in vitro activity against Eimeria tenella,Eimeria tenella,active in vitro
same,mosquito larvicide activity,mosquito,active as a mosquito larvicide
same,MIC,Salmonella typhosa SA12,2 µg/mL
same,pKa,"physchem; pH 5, pKa (first titratable group)",~7.25
same,pKa,"physchem; pH 5, pKa (second titratable group)",~10
same,pKa,"physchem; pH 5, pKa (third titratable group)",~12.2
same,solubility,"Solubility; acetone, methanol, ethyl acetate, tetrahydrofuran, chloroform, and water",less soluble
same,solubility,"Solubility; organic solvent or mixture, soluble in dimethylsulfoxide, pyridine, and 0.1 N sodium hydroxide, read-out: solubility",≥ 5000 µg/mL
same,MIC,[11],2 µg/mL
same,MIC,Trichomonas vaginalis,< 0.975 µg/mL
same,in vitro activity against Trichomonas vaginalis,Trichomonas vaginalis,active in vitro
CC(=O)Oc1cccnc1C(=O)Nc1c(OC(C)=O)cccc1-c1nc2c(C(=O)O)cccc2o1 [diacetyl derivative],MIC,[12],4 µg/mL
same,MIC,[13]; 24 h,> 128 µg/mL
same,MIC,[14],8 µg/mL
same,MIC,[15],8 µg/mL
same,MIC,[16],8 µg/mL
same,MIC,[17],64 µg/mL
same,MIC,"[18]; V41, 24 h",16 µg/mL
same,MIC,[19],> 128 µg/mL
same,MIC,[20],16 µg/mL
same,pKa,"physchem; pH 4.92, pKa",6.8
same,solubility,Solubility; [23],soluble
same,solubility,Solubility; hydrocarbon solvents and water,insoluble
same,MIC,[21],4 µg/mL
"CC(=O)OC(=O)c1cccc2oc(-c3cccc(OC(C)=O)c3N(C(C)=O)C(=O)c3ncccc3OC(C)=O)nc12 [tetraacetyl A-33853, 2-[2-[acetyl[[3-(acetyloxy)-2-pyridinyl]carbonyl]amino]-3-(acetyloxy)phenyl]-4-benzoxazolecarboxylic acid, anhydride with acetic acid]",growth inhibition / activity in vitro,[6],active in vitro
same,titratable groups,[22],no titratable groups
same,solubility,"Solubility; acetone, methanol, ethyl acetate, tetrahydrofuran, water, dimethyl sulfoxide, 0.1 N aqueous NaOH, 0.1 N aqueous HCl","insoluble, or only sparingly soluble"
same,solubility,"Solubility; organic solvent or mixture, soluble in pyridine and chloroform, read-out: solubility",≥ 1000 µg/mL
same,MIC,Trichomonas vaginalis,125 µg/mL
same,in vitro activity against Trichomonas vaginalis,Trichomonas vaginalis,active in vitro
CC(=O)Oc1cccnc1C(=O)N(C(C)=O)c1c(OC(C)=O)cccc1-c1nc2c(C(=O)O)cccc2o1 [triacetyl derivative],MIC,[12],4 µg/mL
same,MIC,"[13]; agar-dilution, 24 hours, read-out: MIC",> 128 µg/mL
same,MIC,[14]; read-out: MIC,16 µg/mL
same,MIC,[15],32 µg/mL
same,MIC,[16],8 µg/mL
same,MIC,[17],64 µg/mL
same,MIC,"[18]; V41, agar-dilution, 24 hours, read-out: MIC",32 µg/mL
same,MIC,[19],> 128 µg/mL
same,MIC,[20],64 µg/mL
same,pKa,"physchem; pH 4.7, pKa",6.85
same,solubility,Solubility; [23],soluble
same,solubility,Solubility; hydrocarbon solvents and water,insoluble
same,MIC,[21],4 µg/mL
